Results reported in publication PMC7503767, “Alkoxyamines Designed as Potential Drugs against Plasmodium and Schistosoma Parasites” (Molecules, 2020).
Where two headings read alike, the source gives them in different places.

Key:
[1] = tested on: P. falciparum F32-ART5 (artemisinin-resistant strain); test: Standard chemosensitivity assay (SYBR Green I), F32-ART5; format: cell-based, Plasmodium falciparum; conditions: ^1 n = 1, ^2 n = 2
Experimental: (§1) F32-ART5, an artemisinin-resistant strain and F32-TEM, an artemisinin-sensitive strain, were obtained from the parental clone F32-Tanzania, respectively under regular drug pressure cycles of increasing artemisinin concentrations for 5 years and without any artemisinin pressure. After these drug pressure cycles allowing selection of the F32-ART5 strain, regular drug pressures were performed to maintain its phenotype. […] Briefly, parasites were cultured in RPMI 1640 (Fisher Scientific, Waltham, Illkirch-Graffenstaden, France) supplemented with 5% type AB human serum (Etablissement français du Sang, Toulouse, France) and adjusted at a parasitemia of 1% and 2% hematocrit with type O human at 37 °C and 5% CO2. Parasite development was daily monitored by Giemsa staining.
(§2) Briefly, for the determination of IC50 values, the chemosensitivity assay was carried out in 96-well culture plates on D-sorbitol ring-stage synchronized parasites and antiplasmodial activities were evaluated using the SYBR Green I method. Drug testing was performed in triplicates in a dose range of 5 to 7 concentrations. […] Parasites were left to proliferate with the given compounds for 48 h at 37 °C and 5% CO2. After this period, pellets were washed 3 times in sterile PBS prior to putting the plates at −20 °C overnight to lyse all red blood cells. The following day, the plates were thawed at room temperature, 100 µL of each well was transferred into a black 96-well plate to which another 100 µL of 2× PBS-diluted SYBR Green I (Sigma-Aldrich) was added and left to incubate for 2 h at room temperature prior to reading the plates on BioTek FL× 800 Microplate Fluorescence Reader (λexcitation = 485 nm, λemission = 528 nm).
(§3) IC50 values were determined using GraphPad Prism by drawing the curve % inhibition vs. [Drug] and using a four-parameter dose–response curve with the following equation: Y=Bottom+ Top−Bottom/1+x^Hill Slope/IC50Hill Slope

[2] = tested on: Adult S. mansoni; test: In vitro antischistosomal activity on adult worms; format: cell-based, Schistosoma mansoni; conditions: for Mean (±SD) survival time – Adult S. mansoni / Time for the death of 100% worms: 100 µg/mL; for Mean (±SD) survival time – Adult S. mansoni: observation up to 8 h (Table S1); for Time for the death of 100% worms / S. mansoni Mean Survival Time: adult S. mansoni, observation up to 8 h; for S. mansoni Mean Survival Time: single dose 100 µg/mL
Description: The NMRI strain of Schistosoma mansoni was used for the experimentations. The parasite was maintained on an albino variety of Biomphalaria glabrata from Brazil (intermediate host) and in Golden Hamsters, Mesocricetus auratus (Janvier Labs, Le Genest-Saint-Isle, France). Detailed methods, for mollusk and hamster infections and for parasite recovery, were previously described.
Adult worms were recovered between 42 and 47 days after infection by hepatic perfusion technique. Twenty to fifty adult worms were disposed in 12-well Falcon® plate containing 2 mL of RPMI 1640 (supplemented with L-glutamine and Hepes 25 mM) and stored in an incubator chamber (37 °C; 5% CO2). Drug preparation started with dissolution of the drug in DMSO to give a 100 mg/mL stock solution. The dilution was complemented with Tween 80 and RPMI in order to obtain the following final ratio dilution: RPMI 1640/Tween 80/DMSO, 1000/0.95/3.8, v/v/v. The drug solution was added to Falcon plates that contained adult worms. The S. mansoni cultures were then incubated with each drug at a final concentration of 100 µg/mL. Positive control was carried out with a solution of praziquantel (Merck KGaA, Darmstadt, Germany) at a concentration of 100 µg/mL. Negative control was carried out with the same RPMI 1640/Tween 80/DMSO solution, but without any drug. Each test was performed in duplicate. Every hour, moving worms were counted in order to define the percentage of survivors. Parasites showing no body contractions during a 30 s observation were considered as dead. Observations were extended to 8 h. Mean survival times (± standard deviation) were calculated for each drug using Kaplan–Meier survival analyses.

[3] = tested on: P. falciparum chloroquine-resistant strain FcB1-Columbia; test: Antiplasmodial screen at 10 µM and chemosensitivity assay (SYBR Green I), FcB1-Columbia; format: cell-based, Plasmodium falciparum
[4] = tested on: Vero cells; test: Cytotoxicity assay (MTT); conditions: for IC50: read-out: Cytotoxicity Mean IC50, Vero cell lines, 48 h, MTT; for Selectivity Index: ratio cytotoxicity (Vero)/activity on Plasmodium
Experimental: (§4) Vero cells were cultured in MEM (Dutscher, Brumath, France) supplemented with 10% fetal bovine serum, 1× non-essential amino acids, 100 U/mL, 100 µg/mL penicillin/streptomycin, and 2 mM L-glutamine at 37 °C in a humidified 5% CO2 atmosphere. […] At this time, each well was microscope-examined for detection of possible precipitate formation prior to remove the supernatant by flicking the plate. 100 µL of a 0.5 mg/mL PBS-dissolved MTT tetrazolium (stock solution at 5 mg/mL) was then added to each well [48]. The plates were then incubated for 1 h at 37 °C and 5% CO2 prior to removing the supernatant and adding 100 µL of DMSO. Plates were gently shaken to dissolve formazan crystals resulting from the MTT tetrazolium reduction by living cells and read at 570 nm with BioTek µQuant Microplate Spectrophotometer.

[5] = tested on: P. falciparum F32-TEM (artemisinin-sensitive strain); test: Standard chemosensitivity assay (SYBR Green I), F32-TEM; format: cell-based, Plasmodium falciparum
Experimental: as §1, §2, §3

[6] = Homolysis of the NO–C bond measured by EPR
Experimental: Homolysis rate constants kd’ were measured by EPR and estimated using Equation (1) as reported many times in the literature. Further, Ea and kd were estimated using Equation (2). (1) ln([nitroxide]∞−[nitroxide]t/[nitroxide]∞)=−kd·t (2) Ea=−RT ln([…] kd′ )

[7] = Cytotoxicity assay (MTT); conditions: African green monkey
Experimental: as §4

[8] = 48 h, read-out: P. falciparum Strains Mean IC50, F32-ART5
[9] = FcB1-Columbia strain, read-out: IC50 on P. falciparum
[10] = 48 h, ^1 n = 1, ^2 n = 2, read-out: P. falciparum Strains Mean IC50, F32-TEM
[11] = read-out: P. falciparum Strains Mean IC50, F32-ART5, 48 h
[12] = read-out: P. falciparum Strains Mean IC50, F32-TEM, 48 h, ^1 n = 1, ^2 n = 2

CCOP(=O)(OCC)C(N(OC(C)c1ccc2ccc3cccnc3c2n1)C(C)(C)C)C(C)(C)C (stereo not drawn) [1J]
IC50 [1, 8]: 2300 nM
Mean (±SD) survival time – Adult S. mansoni [2]: 1.1 ± 0.05 h
Time for the death of 100% worms [2]: 2 h
S. mansoni Mean Survival Time [2]: 1.1 ± 0.1 h
IC50 [3, 9]: 3100 ± 1100 nM
IC50 [4]: 6200 ± 1200 nM
IC50 [5, 10]: 2900 nM

CCOP(=O)(OCC)C(N(OC(C)c1ccnc2c1ccc1cccnc12)C(C)(C)C)C(C)(C)C (stereo not drawn) [1K]
IC50 [1, 8]: 1600 nM
Mean (±SD) survival time – Adult S. mansoni [2]: 1.1 ± 0.04 h
Time for the death of 100% worms [2]: 2 h
S. mansoni Mean Survival Time [2]: 1.1 ± 0.0 h
IC50 [3, 9]: 1300 ± 300 nM
IC50 [4]: 1100 ± 700 nM

CCOP(=O)(OCC)C(N(OC(C)c1cc(-c2ccccn2)nc(-c2ccccn2)c1)C(C)(C)CO)C(C)(C)C (stereo not drawn) [2F]
S. mansoni Mean Survival Time [2]: 2.1 to 2.5 h
IC50 ([3]; Plasmodium falciparum, FCB1, read-out: IC50 on P. falciparum, FcB1-Columbia strain): 200 to 300 nM
Selectivity Index [4]: 1
IC50 ([5]; Plasmodium falciparum, F32, read-out: IC50 on the F32 strains, F32-TEM and F32-ART5 taken together): 400 to 600 nM

CCOP(=O)(OCC)C(N(OC(C)c1ccc2ccc3cccnc3c2n1)C(C)(C)CO)C(C)(C)C (stereo not drawn) [2J]
IC50 [1, 8]: 4600 nM
Mean (±SD) survival time – Adult S. mansoni [2]: 1.0 ± 0.0 h
Time for the death of 100% worms [2]: 1 h
S. mansoni Mean Survival Time [2]: 1.0 ± 0.0 h
IC50 [3, 9]: 2500 ± 1500 nM
IC50 [4]: 17000 ± 6300 nM
IC50 [5, 10]: 5000 nM

CC(ON1C(C)(C)CCCC1(C)C)c1ccncc1 (stereo not drawn) [9a]
IC50 [1, 8]: 13000 nM
Mean (±SD) survival time – Adult S. mansoni [2]: 3.0 ± 0.0 h
Time for the death of 100% worms [2]: 3 h
S. mansoni Mean Survival Time [2]: 3.0 ± 0.0 h
IC50 [3, 9]: 8000 ± 3000 nM
IC50 [4]: 40000 ± 13000 nM
IC50 [5, 10]: 7500 nM

CCOP(=O)(OCC)C(N(OC(CN)c1ccccc1)C(C)(C)C)C(C)(C)C (stereo not drawn) [(RR/SS)-1A]
IC50 [3, 9]: > 10000 nM
IC50 ([4]; listed as (RR/SS)-1A): > 100000 nM

CCOP(=O)(OCC)C(N(OC(C)c1c[nH]cn1)C(C)(C)C)C(C)(C)C (stereo not drawn) [(RR/SS)-1p]
Mean (±SD) survival time – Adult S. mansoni [2]: 1.0 ± 0.05 h
Time for the death of 100% worms [2]: 1 h
S. mansoni Mean Survival Time [2]: 1.0 ± 0.05 h
IC50 [4]: > 100000 nM

CCOP(=O)(OCC)C(N(OC(C)c1cc(-c2ccccn2)nc(-c2ccccn2)c1)C(C)(C)CO)C(C)(C)C (stereo not drawn) [(RR/SS)-2F, Diethyl(1-((1-([2,2′:6′,2′′-terpyridin]-4′-yl)ethoxy)(1-hydroxy-2-methylpropan-2-yl)amino)-2,2-dimethylpropyl)phosphonate]
IC50 [1, 11]: 400 ± 100 nM
S. mansoni Mean Survival Time [2]: 2.5 ± 0.2 h
IC50 ([3]; read-out: IC50 on P. falciparum, FcB1-Columbia strain): 200 nM
Selectivity Index [4]: 1
IC50 [4]: 700 ± 300 nM
activation energy Ea ([6]; MeOH/water 1:1 pH = 7.4): 28.39 kcal/mol
re-estimated homolysis rate constant kd at 120 °C ([6]; MeOH/water 1:1 pH = 7.4): 38.9 10^−3 s^−1
half-lifetime t1/2 at 37 °C ([6]; MeOH/water 1:1 pH = 7.4 (aqueous medium)): 84 h
homolysis rate constant kd′ ([6]; MeOH/water 1:1 pH = 7.4, 81 °C): 7.1 10^−4s^−1
activation energy Ea ([6]; t-BuPh): 28.42 kcal/mol
half-lifetime t1/2 at 37 °C ([6]; t-BuPh): 84 h
re-estimated homolysis rate constant kd at 120 °C ([6]; t-BuPh): 38.4 10^−3 s^−1
homolysis rate constant kd′ ([6]; t-BuPh, 81 °C): 7.0 10^−4s^−1
IC50 [5, 12]: 500 ± 100 nM

CCOP(=O)(OCC)C(N(OC(C)c1cc(-c2ccccn2)nc(-c2ccccn2)c1)C(C)(C)C(=O)O)C(C)(C)C (stereo not drawn) [(RR/SS)-4F, 2-((1-([2,2′:6′,2′′-Terpyridin]-4′-yl)ethoxy)(1-(diethoxyphosphoryl)-2,2-dimethylpropyl)amino)-2-methylpropanoic acid]
IC50 [1, 11]: 4600 nM
Mean (±SD) survival time – Adult S. mansoni [2]: > 8 h
Time for the death of 100% worms [2]: > 8 h
S. mansoni Mean Survival Time [2]: > 8 h
Selectivity Index [4]: 2
IC50 [4]: 8100 nM
IC50 [5, 12]: 4600 nM

CCOP(=O)(OCC)C(N(OC(C)c1cc(-c2ccccn2)nc(-c2ccccn2)c1)C(C)(C)C=O)C(C)(C)C (stereo not drawn) [(RR/SS)-7F, Diethyl(1-((1-([2,2′:6′,2′′-terpyridin]-4′-yl)ethoxy)(2-methyl-1-oxopropan-2-yl)amino)-2,2-dimethylpropyl)phosphonate]
IC50 [1, 11]: 850 nM
Time for the death of 100% worms [2]: 3 h
S. mansoni Mean Survival Time [2]: 2.5 ± 0.1 h
Selectivity Index [4]: 1
IC50 [4]: 1200 ± 1300 nM
IC50 [5, 12]: 940 nM

CCOP(=O)(OCC)C(N(OC(CN)c1ccccc1)C(C)(C)C)C(C)(C)C (stereo not drawn) [(RS/SR)-1A]
Mean (±SD) survival time – Adult S. mansoni [2]: 1.0 ± 0.05 h
Time for the death of 100% worms [2]: 1 h
S. mansoni Mean Survival Time [2]: 1.0 ± 0.05 h
IC50 ([4]; listed as (RS/SR)-1A): 21000 nM

CCN(CC)CCCC(C)Nc1ccnc2cc(Cl)ccc12 (stereo not drawn) [Chloroquine, chloroquine, reference compound]
IC50 ([1]; Plasmodium falciparum, F32, 48 h, read-out: P. falciparum Strains Mean IC50, F32-ART5, 48 h): 60 ± 30 nM
IC50 ([3]; Plasmodium falciparum, FCB1, read-out: IC50 on P. falciparum): 160 ± 36 nM
IC50 at 48 h [7]: 190000 ± 56000 nM
IC50 ([5]; Plasmodium falciparum, F32, 48 h, read-out: P. falciparum Strains Mean IC50, F32-TEM, 48 h, ^1 n = 1, ^2 n = 2): 60 ± 20 nM
